Assay results as given in ChEMBL document CHEMBL1275314, “Synthesis and biological evaluation of some 1,3,4-oxadiazole derivatives” (Eur J Med Chem, 2010).
≈ marks a conversion by molar mass, not a printed value.

Experiments:
Format in all cases: functional
Pseudomonas aeruginosa = test: Antibacterial activity against Pseudomonas aeruginosa ATCC 27853 after 3 to 4 days by serial plate dilution method
Klebsiella pneumoniae = test: Antibacterial activity against Klebsiella pneumoniae after 3 to 4 days by serial plate dilution method
Aspergillus flavus = test: Antifungal activity against Aspergillus flavus NCIM 524 after 3 to 4 days by serial plate dilution method
Aspergillus fumigatus = test: Antifungal activity against Aspergillus fumigatus NCIM 902 after 3 to 4 days by serial plate dilution method
Talaromyces marneffei = test: Antifungal activity against Penicillium marneffei after 3 to 4 days by serial plate dilution method
[1] = test system: Trichophyton mentagrophytes; test: Antifungal activity against Trichophyton mentagrophytes after 3 to 4 days by serial plate dilution method
Escherichia coli = test: Antibacterial activity against Escherichia coli ATCC 25922 after 3 to 4 days by serial plate dilution method
Staphylococcus aureus = test: Antibacterial activity against Staphylococcus aureus ATCC 25923 after 3 to 4 days by serial plate dilution method
Rattus norvegicus = test: Antiinflammatory activity in Wister albino rat assessed as inhibition of carrageenan-induced paw edema at 10 mg/kg, po administered 30 mins before carrageenan treatment measured after 3 hrs by plethysmometric analysis
Mus musculus [2] = test: Analgesic activity in Swiss albino mouse assessed as inhibition of heat-induced paw licking or jumping behavior at 10 mg/kg, po administered after 15 sec of heat challenge measured after 30 mins post dose by Eddy's hot plate method; details: 0.5 h
Mus musculus [3] = test: Analgesic activity in Swiss albino mouse assessed as inhibition of heat-induced paw licking or jumping behavior at 10 mg/kg, po administered after 15 sec of heat challenge measured after 60 mins post dose by Eddy's hot plate method; details: 1 h
Mus musculus [4] = test: Analgesic activity in Swiss albino mouse assessed as inhibition of heat-induced paw licking or jumping behavior at 10 mg/kg, po administered after 15 sec of heat challenge measured after 90 mins post dose by Eddy's hot plate method; details: 1.5 h

Row | Compound | MIC (Pseudomonas aeruginosa) | MIC (Klebsiella pneumoniae) | MIC (Aspergillus flavus) | MIC (Aspergillus fumigatus) | MIC (Talaromyces marneffei) | MIC [1] | MIC (Escherichia coli) | MIC (Staphylococcus aureus) | inhibition in vivo at 10 mg/kg (Rattus norvegicus) | inhibition in vivo at 10 mg/kg (Mus musculus [2]) | inhibition in vivo at 10 mg/kg (Mus musculus [3]) | inhibition in vivo at 10 mg/kg (Mus musculus [4])
1 | CSc1ccc(Cc2nn(CN3CCCCC3)c(=S)o2)cc1 | 12.5 mg/L (≈ 37.3 µM) | 12.5 mg/L (≈ 37.3 µM) | 25 mg/L (≈ 74.5 µM) | 25 mg/L (≈ 74.5 µM) | 25 mg/L (≈ 74.5 µM) | 25 mg/L (≈ 74.5 µM) | 12.5 mg/L (≈ 37.3 µM) | 12.5 mg/L (≈ 37.3 µM) | – | – | – | –
2 | CSc1ccc(Cc2nn(CN3CCN(c4ccc(F)cc4)CC3)c(=S)o2)cc1 | 6.25 mg/L (≈ 14.5 µM) | 6.25 mg/L (≈ 14.5 µM) | 6.25 mg/L (≈ 14.5 µM) | 6.25 mg/L (≈ 14.5 µM) | 6.25 mg/L (≈ 14.5 µM) | 6.25 mg/L (≈ 14.5 µM) | 6.25 mg/L (≈ 14.5 µM) | 6.25 mg/L (≈ 14.5 µM) | 68.7% | – | – | –
3 | COc1ccc(N2CCN(Cn3nc(C(C)c4ccc(CC(C)C)cc4)oc3=S)CC2)cc1 (stereo not drawn) | 6.25 mg/L (≈ 13.4 µM) | 6.25 mg/L (≈ 13.4 µM) | 12.5 mg/L (≈ 26.8 µM) | 12.5 mg/L (≈ 26.8 µM) | 12.5 mg/L (≈ 26.8 µM) | 12.5 mg/L (≈ 26.8 µM) | 6.25 mg/L (≈ 13.4 µM) | 6.25 mg/L (≈ 13.4 µM) | 42.6% | – | – | –
4 | CC(C)Cc1ccc(C(C)c2nn(CN3CCN(c4ccc([N+](=O)[O-])cc4)CC3)c(=S)o2)cc1 (stereo not drawn) | 12.5 mg/L (≈ 26 µM) | 12.5 mg/L (≈ 26 µM) | 25 mg/L (≈ 51.9 µM) | 25 mg/L (≈ 51.9 µM) | 25 mg/L (≈ 51.9 µM) | 25 mg/L (≈ 51.9 µM) | 12.5 mg/L (≈ 26 µM) | 12.5 mg/L (≈ 26 µM) | 75.1% | 30.6% | 36.2% | 44.8%
5 | CSc1ccc(Cc2nn(CN3CCNCC3)c(=S)o2)cc1 | 12.5 mg/L (≈ 37.1 µM) | 12.5 mg/L (≈ 37.1 µM) | 12.5 mg/L (≈ 37.1 µM) | 12.5 mg/L (≈ 37.1 µM) | 12.5 mg/L (≈ 37.1 µM) | 12.5 mg/L (≈ 37.1 µM) | 12.5 mg/L (≈ 37.1 µM) | 12.5 mg/L (≈ 37.1 µM) | – | – | – | –
6 | CC(C)Cc1ccc(C(C)c2nn(CN3CCN(c4cccc(Cl)c4)CC3)c(=S)o2)cc1 (stereo not drawn) | 25 mg/L (≈ 53.1 µM) | 25 mg/L (≈ 53.1 µM) | 6.25 mg/L (≈ 13.3 µM) | 6.25 mg/L (≈ 13.3 µM) | 6.25 mg/L (≈ 13.3 µM) | 6.25 mg/L (≈ 13.3 µM) | 25 mg/L (≈ 53.1 µM) | 25 mg/L (≈ 53.1 µM) | 64.3% | – | – | –
7 | CCOc1ccccc1N1CCN(Cn2nc(Cc3ccc(SC)cc3)oc2=S)CC1 | 12.5 mg/L (≈ 27.4 µM) | 12.5 mg/L (≈ 27.4 µM) | 12.5 mg/L (≈ 27.4 µM) | 12.5 mg/L (≈ 27.4 µM) | 12.5 mg/L (≈ 27.4 µM) | 12.5 mg/L (≈ 27.4 µM) | 12.5 mg/L (≈ 27.4 µM) | 12.5 mg/L (≈ 27.4 µM) | 42.5% | – | – | –
8 | CSc1ccc(Cc2nn(CN3CCN(c4cccc(Cl)c4)CC3)c(=S)o2)cc1 | 12.5 mg/L (≈ 28 µM) | 12.5 mg/L (≈ 28 µM) | 12.5 mg/L (≈ 28 µM) | 12.5 mg/L (≈ 28 µM) | 12.5 mg/L (≈ 28 µM) | 12.5 mg/L (≈ 28 µM) | 12.5 mg/L (≈ 28 µM) | 12.5 mg/L (≈ 28 µM) | 74.7% | 25.6% | 32% | 41.2%
9 | CSc1ccc(Cc2nn(CN3CCOCC3)c(=S)o2)cc1 | 12.5 mg/L (≈ 37 µM) | 12.5 mg/L (≈ 37 µM) | 6.25 mg/L (≈ 18.5 µM) | 6.25 mg/L (≈ 18.5 µM) | 6.25 mg/L (≈ 18.5 µM) | 6.25 mg/L (≈ 18.5 µM) | 12.5 mg/L (≈ 37 µM) | 12.5 mg/L (≈ 37 µM) | 35.2% | – | – | –
10 | CC(C)Cc1ccc(C(C)c2nn(CN3CCCCC3)c(=S)o2)cc1 (stereo not drawn) | 25 mg/L (≈ 69.5 µM) | 25 mg/L (≈ 69.5 µM) | 25 mg/L (≈ 69.5 µM) | 25 mg/L (≈ 69.5 µM) | 25 mg/L (≈ 69.5 µM) | 25 mg/L (≈ 69.5 µM) | 25 mg/L (≈ 69.5 µM) | 25 mg/L (≈ 69.5 µM) | – | – | – | –
11 | CCOC(=O)C1CCN(Cn2nc(Cc3ccc(SC)cc3)oc2=S)CC1 | 12.5 mg/L (≈ 30.7 µM) | 12.5 mg/L (≈ 30.7 µM) | 12.5 mg/L (≈ 30.7 µM) | 12.5 mg/L (≈ 30.7 µM) | 12.5 mg/L (≈ 30.7 µM) | 12.5 mg/L (≈ 30.7 µM) | 12.5 mg/L (≈ 30.7 µM) | 12.5 mg/L (≈ 30.7 µM) | 57.4% | – | – | –
12 | Cc1cc(C2CCCCC2)n(O)c(=O)c1.NCCO [CICLOPIROX OLAMINE] | – | – | 6.25 mg/L | 6.25 mg/L | 1.56 mg/L | 6.25 mg/L | – | – | – | – | – | –
13 | CC(C)Cc1ccc(C(C)c2nn(CN3CCN(c4ccc(F)cc4)CC3)c(=S)o2)cc1 (stereo not drawn) | 6.25 mg/L (≈ 13.7 µM) | 6.25 mg/L (≈ 13.7 µM) | 6.25 mg/L (≈ 13.7 µM) | 6.25 mg/L (≈ 13.7 µM) | 6.25 mg/L (≈ 13.7 µM) | 6.25 mg/L (≈ 13.7 µM) | 6.25 mg/L (≈ 13.7 µM) | 6.25 mg/L (≈ 13.7 µM) | 75.4% | 32.6% | 45% | 57%
14 | CSc1ccc(Cc2nn(CN3CCN(c4ccc(Cl)cc4)CC3)c(=S)o2)cc1 | 6.25 mg/L (≈ 14 µM) | 6.25 mg/L (≈ 14 µM) | 6.25 mg/L (≈ 14 µM) | 6.25 mg/L (≈ 14 µM) | 6.25 mg/L (≈ 14 µM) | 6.25 mg/L (≈ 14 µM) | 6.25 mg/L (≈ 14 µM) | 6.25 mg/L (≈ 14 µM) | 71.1% | – | – | –
15 | CC(C)Cc1ccc(C(C)c2nn(CN3CCOCC3)c(=S)o2)cc1 (stereo not drawn) | 6.25 mg/L (≈ 17.3 µM) | 6.25 mg/L (≈ 17.3 µM) | 6.25 mg/L (≈ 17.3 µM) | 6.25 mg/L (≈ 17.3 µM) | 6.25 mg/L (≈ 17.3 µM) | 6.25 mg/L (≈ 17.3 µM) | 6.25 mg/L (≈ 17.3 µM) | 6.25 mg/L (≈ 17.3 µM) | 69.5% | – | – | –
16 | O=C(O)c1cn(C2CC2)c2cc(N3CCNCC3)c(F)cc2c1=O [CIPROFLOXACIN] | – | 6.25 mg/L (≈ 18.9 µM) | – | – | – | – | – | 1.56 mg/L (≈ 4.71 µM) | – | – | – | –
17 | CCOc1ccccc1N1CCN(Cn2nc(C(C)c3ccc(CC(C)C)cc3)oc2=S)CC1 (stereo not drawn) | 25 mg/L (≈ 52 µM) | 25 mg/L (≈ 52 µM) | 12.5 mg/L (≈ 26 µM) | 12.5 mg/L (≈ 26 µM) | 12.5 mg/L (≈ 26 µM) | 12.5 mg/L (≈ 26 µM) | 25 mg/L (≈ 52 µM) | 25 mg/L (≈ 52 µM) | 44.6% | – | – | –
18 | O=C(O)Cc1ccccc1Nc1c(Cl)cccc1Cl [DICLOFENAC SODIUM] | – | – | – | – | – | – | – | – | 73.7% | 29.2% | 40.8% | 53.6%
19 | COc1ccc(N2CCN(Cn3nc(Cc4ccc(SC)cc4)oc3=S)CC2)cc1 | 12.5 mg/L (≈ 28.2 µM) | 12.5 mg/L (≈ 28.2 µM) | 12.5 mg/L (≈ 28.2 µM) | 12.5 mg/L (≈ 28.2 µM) | 12.5 mg/L (≈ 28.2 µM) | 12.5 mg/L (≈ 28.2 µM) | 12.5 mg/L (≈ 28.2 µM) | 12.5 mg/L (≈ 28.2 µM) | 33.7% | – | – | –
20 | CC(C)Cc1ccc(C(C)c2nn(CN3CCN(C)CC3)c(=S)o2)cc1 (stereo not drawn) | 12.5 mg/L (≈ 33.4 µM) | 12.5 mg/L (≈ 33.4 µM) | 25 mg/L (≈ 66.7 µM) | 25 mg/L (≈ 66.7 µM) | 25 mg/L (≈ 66.7 µM) | 25 mg/L (≈ 66.7 µM) | 12.5 mg/L (≈ 33.4 µM) | 12.5 mg/L (≈ 33.4 µM) | – | – | – | –
21 | CC(C)Cc1ccc(C(C)c2nn(CN3CCNCC3)c(=S)o2)cc1 (stereo not drawn) | 12.5 mg/L (≈ 34.7 µM) | 12.5 mg/L (≈ 34.7 µM) | 12.5 mg/L (≈ 34.7 µM) | 12.5 mg/L (≈ 34.7 µM) | 12.5 mg/L (≈ 34.7 µM) | 12.5 mg/L (≈ 34.7 µM) | 12.5 mg/L (≈ 34.7 µM) | 12.5 mg/L (≈ 34.7 µM) | – | – | – | –
22 | CSc1ccc(Cc2nn(CN3CCN(C)CC3)c(=S)o2)cc1 | 12.5 mg/L (≈ 35.7 µM) | 12.5 mg/L (≈ 35.7 µM) | 25 mg/L (≈ 71.3 µM) | 25 mg/L (≈ 71.3 µM) | 25 mg/L (≈ 71.3 µM) | 25 mg/L (≈ 71.3 µM) | 12.5 mg/L (≈ 35.7 µM) | 12.5 mg/L (≈ 35.7 µM) | – | – | – | –
23 | CSc1ccc(Cc2nn(CN3CCN(c4ccc([N+](=O)[O-])cc4)CC3)c(=S)o2)cc1 | 6.25 mg/L (≈ 13.7 µM) | 6.25 mg/L (≈ 13.7 µM) | 25 mg/L (≈ 54.6 µM) | 25 mg/L (≈ 54.6 µM) | 25 mg/L (≈ 54.6 µM) | 25 mg/L (≈ 54.6 µM) | 6.25 mg/L (≈ 13.7 µM) | 6.25 mg/L (≈ 13.7 µM) | 56.6% | – | – | –
